# Experimental data taken from patent US12247032B2, “Substituted pyrazolo[1,5-a]pyrimidines as inhibitors of JAK kinases” (Genentech, Inc., priority 2019, dated 2025).
# Like-named read-outs stand apart in the source and are kept apart here.
# Assays:
# [1] = system: JAK2 pathway (P-STAT5 in TF-1 human erythroleukemia cells + EPO); test: P-STAT5 TF-1+Erythropoietin (EPO) assay; type: cell-based; conditions: TF-1 cells, 30 minutes compound, EPO 30 min, IC50 by four-parameter fit, read-out: Cellular (JAK2 PSTAT5 TF1 + EPO)
# Description: (§1) TF-1 human erythroleukemia cells (ATCC®; Manassas, VA; Catalog No. CRL-2003™) were grown in Roswell Park Memorial Institute (RPMI) medium supplemented with 10% heat-inactivated fetal bovine serum (FBS), 2 ng/mL granulocyte-macrophage colony-stimulating factor, 1× non-essential amino acids (NEAA), and 1 mM sodium pyruvate. The day before the assay, the cultures were transferred to Opti-MEM™, 1×NEAA, 1 mM sodium pyruvate, and 0.5% charcoal-stripped FBS (starve medium). Inhibitor stock solutions (5 mM in DMSO) were serially diluted 1:2 in DMSO to generate a 10-point concentration titration (at 500× test concentration), which was further diluted by a 50-fold dilution in Assay Medium (RPMI containing 1×NEAA and 1 mM sodium pyruvate) to generate a 10× concentration titration (in 2% DMSO). The cells (300,000 cells/well in 35 μL of Assay Medium) were seeded in 384-well Greiner plates. Diluted inhibitor at 10× concentration (5 μL) was added to the cells and the plates were incubated for 30 minutes at 37° C. in a humidified incubator. Cells were stimulated with the human recombinant cytokine at the respective EC90 concentrations, as previously determined for each individual lot. For the phosphorylated signal transducer and activator of transcription 6 (P-STAT6) TF-1+Interleukin-13 (IL-13) assay, 10 μL of 250 ng/mL IL-13 (R&D Systems; Minneapolis, MN) was added to the cells, which were then incubated for 10 minutes at 37° C. For the P-STAT5 TF-1+Erythropoietin (EPO) assay, 10 μL of 110 IU/mL EPO (Gibco Life Technologies, Catalog No. PHC2054) was added to the cells, which were then incubated for 30 min at 37° C. For both assays, the incubation was followed by addition to the cells of 5 μL of ice-cold 10× cell lysis buffer (Cell Signaling Technologies; Danvers, MA; Catalog No. 9803S) containing 1 mM phenylmethylsulfonyl fluoride (PMSF). Assay plates were frozen at −80° C. for a minimum of 1 hour. In the IL-13 assay, P-STAT6 was measured by coating goat anti-rabbit (GAR) plates (Meso Scale Discovery [MSD]; Rockville, MD; Catalog No. MSD L21RA-1) with rabbit anti-human total STAT6 antibody (Cell Signaling Technologies; Catalog No. 9362S), incubating the cell lysates in the coated plates overnight at 4° C., and then detecting with mouse anti-P-STAT6 (Tyr641) Clone 16E12 antibody (MilliporeSigma; Burlington, MA; Catalog No. 05-590, custom labeled by MSD with SULFO-tag) using standard MSD plate processing, washing, and detection protocols. In the EPO assay, P-STAT5 was detected using the phospho-STAT5a,b Whole Cell Lysate Kit (MSD; Catalog No. K150IGD-1). The electrochemiluminescence (ECL) signal of wells was read on the MESO SECTOR S600 (MSD) reader.
# (§2) Data analysis was performed by subtracting the negative control (cytokine stimulated and 20 μM control inhibitor-treated cells) mean ECL value from the ECL value of all wells, determining percent of control for test compound well ECL values relative to the positive control (cytokine stimulated and DMSO-treated cells) mean ECL value, and determining the IC50 for test compounds with a four-parameter logistic fit model as shown in Equation 4.
# [2] = system: JAK1 pathway (P-STAT6 in TF-1 human erythroleukemia cells + IL-13); test: P-STAT6 TF-1+Interleukin-13 (IL-13) assay; type: cell-based; conditions: TF-1 cells, 30 minutes compound, IL-13 10 minutes, IC50 by four-parameter fit, read-out: Cellular PSTAT6 TF-1 + IL13
# Description: as §1, §2
SMILES,"IC50 ([1]; Homo sapiens, TF-1, 0.5 h) [nM]","IC50 ([2]; Homo sapiens, TF-1, 0.5 h) [nM]",IC50 [1] [nM],IC50 [2] [nM]
"CN(C)CCN1CCC(n2nnc(Cn3cc(NC(=O)c4cnn5cccnc45)c(-c4cc(OC(F)F)ccc4OC(F)F)n3)n2)CC1 [Example 61, N-[3-[2,5-bis(difluoromethoxy)phenyl]-1-[[2-[1-[2-(dimethylamino)ethyl]-4-piperidyl]tetrazol-5-yl]methyl]pyrazol-4-yl]pyrazolo[1,5-a]pyrimidine-3-carboxamide]",36,33,–,–
"O=C(Nc1cn(Cc2nnn(C3CCNCC3)n2)nc1-c1cc(OC(F)F)ccc1OC(F)F)c1cnn2cccnc12 [Example 18, N-[3-[2,5-bis(difluoromethoxy)phenyl]-1-[[2-(4-piperidyl)tetrazol-5-yl]methyl]pyrazol-4-yl]pyrazolo[1,5-a]pyrimidine-3-carboxamide]",19,20,–,–
"CNCCn1nnc(Cn2cc(NC(=O)c3cnn4cccnc34)c(-c3cc(OC(F)F)ccc3OC(F)F)n2)n1 [Example 20, N-[3-[2,5-bis(difluoromethoxy)phenyl]-1-[[2-[2-(methylamino)ethyl]tetrazol-5-yl]methyl]pyrazol-4-yl]pyrazolo[1,5-a]pyrimidine-3-carboxamide]",15,45,–,–
"CN(C)CCN1CC(n2nnc(Cn3cc(NC(=O)c4cnn5cccnc45)c(-c4cc(OC(F)F)ccc4OC(F)F)n3)n2)C1 [Example 21, N-[3-[2,5-bis(difluoromethoxy)phenyl]-1-[[2-[1-[2-(dimethylamino)ethyl]azetidin-3-yl]tetrazol-5-yl]methyl]pyrazol-4-yl]pyrazolo[1,5-a]pyrimidine-3-carboxamide]",32,40,–,–
"CSc1ccc(OC(F)F)c(-c2nn(Cc3nnn(C4CN(CCCN(C)C)C4)n3)cc2NC(=O)c2cnn3cccnc23)c1 [Example 58, N-[3-[2-(difluoromethoxy)-5-methylsulfanyl-phenyl]-1-[[2-[1-[3-(dimethylamino)propyl]azetidin-3-yl]tetrazol-5-yl]methyl]pyrazol-4-yl]pyrazolo[1,5-a]pyrimidine-3-carboxamide]",24,51,–,–
"CN1CCC(N2CC(n3nnc(Cn4cc(NC(=O)c5cnn6cccnc56)c(-c5cc(OC(F)F)ccc5OC(F)F)n4)n3)C2)C1 (single isomer, unassigned) [Example 72, N-[3-[2,5-bis(difluoromethoxy)phenyl]-1-[[2-[1-(1-methylpyrrolidin-3-yl)azetidin-3-yl]tetrazol-5-yl]methyl]pyrazol-4-yl]pyrazolo[1,5-a]pyrimidine-3-carboxamide]",51,39,–,–
"CNCCn1nnnc1Cn1cc(NC(=O)c2cnn3cccnc23)c(-c2cc(OC(F)F)ccc2OC(F)F)n1 [Example 19, N-[3-[2,5-bis(difluoromethoxy)phenyl]-1-[[1-[2-(methylamino)ethyl]tetrazol-5-yl]methyl]pyrazol-4-yl]pyrazolo[1,5-a]pyrimidine-3-carboxamide]",21,7,–,–
"NCCn1nnnc1Cn1cc(NC(=O)c2cnn3cccnc23)c(-c2cc(OC(F)F)ccc2OC(F)F)n1 [Example 14, N-[1-[[1-(2-aminoethyl)tetrazol-5-yl]methyl]-3-[2,5-bis(difluoromethoxy)phenyl]pyrazol-4-yl]pyrazolo[1,5-a]pyrimidine-3-carboxamide]",46,45,–,–
"O=C(Nc1cn(Cc2nnn(C3CCNC3)n2)nc1-c1cc(OC(F)F)ccc1OC(F)F)c1cnn2cccnc12 (single isomer, unassigned) [Example 28, N-[3-[2,5-bis(difluoromethoxy)phenyl]-1-[(2-pyrrolidin-3-yltetrazol-5-yl)methyl]pyrazol-4-yl]pyrazolo[1,5-a]pyrimidine-3-carboxamide]",–,–,19,7.1
CN1CCC(n2nnc(Cn3cc(NC(=O)c4cnn5cccnc45)c(-c4cc(OC(F)F)ccc4OC(F)F)n3)n2)CC1 [Example 22],18,4.8,–,–
"CN1CCC(n2nnnc2Cn2cc(NC(=O)c3cnn4cccnc34)c(-c3cc(OC(F)F)ccc3OC(F)F)n2)C1 (centres unmarked) [Example 26, N-[3-[2,5-bis(difluoromethoxy)phenyl]-1-[[1-(1-methylpyrrolidin-3-yl)tetrazol-5-yl]methyl]pyrazol-4-yl]pyrazolo[1,5-a]pyrimidine-3-carboxamide]",18,11,–,–
"O=C(Nc1cn(Cc2nnn(C3CCNC3)n2)nc1-c1cc(OC(F)F)ccc1OC(F)F)c1cnn2cccnc12 (single isomer, unassigned) [Example 27, N-[3-[2,5-bis(difluoromethoxy)phenyl]-1-[(2-pyrrolidin-3-yltetrazol-5-yl)methyl]pyrazol-4-yl]pyrazolo[1,5-a]pyrimidine-3-carboxamide]",17,13,–,–

# Now from value to molecule:
"IC50 ([1]; Homo sapiens, TF-1, 0.5 h) [nM]","IC50 ([2]; Homo sapiens, TF-1, 0.5 h) [nM]",IC50 [1] [nM],IC50 [2] [nM],SMILES
10,18,–,–,"NCCn1nnc(Cn2cc(NC(=O)c3cnn4cccnc34)c(-c3cc(OC(F)F)ccc3OC(F)F)n2)n1 [Example 13, N-[1-[[2-(2-aminoethyl)tetrazol-5-yl]methyl]-3-[2,5-bis(difluoromethoxy)phenyl]pyrazol-4-yl]pyrazolo[1,5-a]pyrimidine-3-carboxamide]"
13,8.4,–,–,"O=C(Nc1cn(Cc2nnn(C3CNC3)n2)nc1-c1cc(Cl)ccc1OC(F)F)c1cnn2cccnc12 [Example 8, N-[1-[[2-(azetidin-3-yl)tetrazol-5-yl]methyl]-3-[5-chloro-2-(difluoromethoxy)phenyl]pyrazol-4-yl]pyrazolo[1,5-a]pyrimidine-3-carboxamide]"
7.2,3.4,–,–,"CN1CC(n2nnnc2Cn2cc(NC(=O)c3cnn4cccnc34)c(-c3cc(Cl)ccc3OC(F)F)n2)C1 [Example 15, N-[3-[5-chloro-2-(difluoromethoxy)phenyl]-1-[[1-(1-methylazetidin-3-yl)tetrazol-5-yl]methyl]pyrazol-4-yl]pyrazolo[1,5-a]pyrimidine-3-carboxamide]"
12,30,–,–,"CN(C)[C@H]1C[C@H](N2CC(n3nnc(Cn4cc(NC(=O)c5cnn6cccnc56)c(-c5cc(OC(F)F)ccc5OC(F)F)n4)n3)C2)C1 [Example 70, N-[3-[2,5-bis(difluoromethoxy)phenyl]-1-[[2-[1-[3-(dimethylamino)cyclobutyl]azetidin-3-yl]tetrazol-5-yl]methyl]pyrazol-4-yl]pyrazolo[1,5-a]pyrimidine-3-carboxamide]"
9.7,2.7,–,–,"CN(C)CCn1nnnc1Cn1cc(NC(=O)c2cnn3cccnc23)c(-c2cc(OC(F)F)ccc2OC(F)F)n1 [Example 17, N-[3-[2,5-bis(difluoromethoxy)phenyl]-1-[[1-[2-(dimethylamino)ethyl]tetrazol-5-yl]methyl]pyrazol-4-yl]pyrazolo[1,5-a]pyrimidine-3-carboxamide]"
8.6,13,–,–,"CN(CCN1CC(n2nnc(Cn3cc(NC(=O)c4cnn5cccnc45)c(-c4cc(OC(F)F)ccc4OC(F)F)n3)n2)C1)C(=O)OC(C)(C)C [Example 31, tert-butyl N-[2-[3-[5-[[3-[2,5-bis(difluoromethoxy)phenyl]-4-(pyrazolo[1,5-a]pyrimidine-3-carbonylamino)pyrazol-1-yl]methyl]tetrazol-2-yl]azetidin-1-yl]ethyl]-N-methyl-carbamate]"
10,9.5,–,–,"O=C(Nc1cn(Cc2nnn(C3CNC3)n2)nc1-c1cc(OC(F)F)ccc1OC(F)F)c1cnn2cccnc12 [Example 11, N-[1-[[2-(azetidin-3-yl)tetrazol-5-yl]methyl]-3-[2,5-bis(difluoromethoxy)phenyl]pyrazol-4-yl]pyrazolo[1,5-a]pyrimidine-3-carboxamide]"
